ChEMBL document CHEMBL3507680, “University of Dundee, Gates Library screen for HepG2 cell viability”

Assay: Human HepG2 cell viability assay in 384 well format
Assay type: toxicity, cell-based
Design: dose 125 nL, time 70.5 hour; concentration not given beside the values
Details: HepG2 cells, read-out: Inhibition

Row | Structure (SMILES) | cytotoxicity at 70.5 h
1 | COc1ccc(CN2CCC(c3nnc(-c4scnc4C)o3)CC2)cc1 | -3.83%
2 | CN(C)[C@@H]1CN(C(=O)COc2cccc(F)c2)C[C@H]1O | -9.79%
3 | C[C@]1(O)CN(Cc2ccc(C(=O)O)cc2)CC[C@@H]1Oc1cccc(F)c1 | -10.9%
4 | CCc1nccn1-c1cccc(C2CCCN2S(=O)(=O)N(C)C)n1 (configuration not stated) | -7.54%
5 | COCC(=O)N1CCC(c2n[nH]c3nccnc23)CC1 | -7.45%
6 | CNc1ccc(CC2CCCN(C(=O)c3scnc3C)C2)nn1 (configuration not stated) | -5.63%
7 | c1cnc(N2CCCC(c3n[nH]c4ncccc34)C2)nc1 (configuration not stated) | -4.04%
8 | Cc1ncccc1Oc1nccnc1C1CCN(S(C)(=O)=O)CC1 | -5.66%
9 | CCc1cc(=O)[nH]c(-c2ccc(NC(C)COC)nc2)n1 (configuration not stated) | 2.74%
10 | O=C(Nc1ccc(-n2ccc(C(=O)O)n2)cc1)c1ccccc1 | -1.13%
11 | CC(=O)NCC(=O)Nc1cc(C)n(-c2ccc(Cl)cc2Cl)n1 | -0.82%
12 | O=C(O)c1ccn(-c2ccccc2NC(=O)c2ccccc2Cl)n1 | -3.53%
13 | CC1CCN(CCNC(=O)c2sccc2C2CC2)CC1 | -5.27%
14 | Cc1ccc(OCCN(C)C2CCOC2=O)cc1 (configuration not stated) | -5.65%
15 | OCC1(NCc2cccc(-n3cccn3)c2)CCOCC1 | -1.42%
16 | COCCN(CCOC)C(=O)c1cnn(C)c1C | -10.4%
17 | COCCN(Cc1ccccc1)C(=O)c1cnn(C)c1C | -8.55%
18 | O=C(O)c1ccn(-c2cccc(NC(=O)c3ccccc3Cl)c2)n1 | -6.97%
19 | CCN(CC)C(CNC(=O)c1cccnc1-n1cncn1)c1ccsc1 (configuration not stated) | -7.63%
20 | COCCOCC1CCN(C(=O)c2ccc3[nH]cnc3c2)C1 (configuration not stated) | 2.45%
21 | Cc1ccccc1NC(=O)CCNC(=O)c1ccoc1 | 2.88%
22 | CN(C)c1ncccc1CNC(=O)CCNc1ncccn1 | -9.01%
23 | CCC(CNS(=O)(=O)c1cccc(C(=O)OC)c1)N1CCCC1 (configuration not stated) | -10.7%
24 | CN(Cc1cnn(C)c1)C(=O)Nc1cccnc1-n1cccn1 | 14.6%

Row | Structure (SMILES) | cytotoxicity at 70.5 h
25 | Cn1cc(S(=O)(=O)N(Cc2ccc(F)cc2F)C2CC2)cc1C(N)=O | -7.08%
26 | CCCN(CC(F)(F)F)S(=O)(=O)c1cc(C(N)=O)n(C)c1 | -8.17%
27 | COc1ncccc1CNCc1cnc(N2CCOCC2)nc1 | -9.23%
28 | COC(=O)C1CCN(C(=O)Cn2ccc(-c3ccsc3)n2)CC1 | -3.32%
29 | Cn1cc(NC(=O)N2CCCC2c2cccnc2)ccc1=O (configuration not stated) | -3.14%
30 | COC(=O)C1CCN(C(=O)Cn2nc(C)nc2-c2ccccc2)CC1 | -2.98%
31 | COC(=O)C1(NCC(=O)Nc2cc(C)ccc2OC)CCCCC1 | 2.15%
32 | Cc1noc(OCC(=O)N2CCCCC2C)n1 (configuration not stated) | -3.19%
33 | Cc1cnn(CCNCC(=O)N2CCN(c3ccccc3)CC2)c1 | 21.4%
34 | NC(=O)c1cn[nH]c1NC(=O)c1ccc2c(c1)OCO2 | 1.1%
35 | CCOCCC(=O)Nc1cccc(Cl)c1C(N)=O | -0.685%
36 | Cn1cc(CC(=O)N2CCCC(c3cc(C(F)(F)F)[nH]n3)C2)cn1 (configuration not stated) | 15.9%
37 | Cn1cnc(S(=O)(=O)N2CCCCc3ccccc32)c1 | 1.57%
38 | CCc1ccc(CC)c(NCc2cnc(N3CCOCC3)nc2)c1 | -2.91%
39 | Cc1cc(C)n(C2CN(Cc3nc4cc(Cl)ccc4n3C)C2)n1 | 4.28%
40 | CCc1cnc(C(C)NC(=O)N2CCCN(CC(F)F)CC2)s1 (configuration not stated) | -4.42%
41 | CC(C)(NCCCOc1ccc(C#N)cc1)c1nccs1 | -1.99%
42 | CN(CCc1ccccn1)CCc1nccs1 | -8.22%
43 | Cc1ccc(C(C)NC(=O)N2CCCN(CC(F)F)CC2)s1 (configuration not stated) | -2.75%
44 | CCC(C)C(=O)N(CC(=O)OC)c1cccc(C)n1 (configuration not stated) | 2.47%
45 | CC(CNC(=O)NCc1ccoc1)N1CCc2sccc2C1 (configuration not stated) | 6.45%
46 | CC(Cn1cccn1)NC(=O)CCc1nc(C(C)(C)C)no1 (configuration not stated) | -2.44%
47 | Cc1nn(C)c2ncc(NC(=O)N3CCCCCC3)cc12 | -4.95%
48 | Cc1noc(C)c1CN(C)C(=O)C1CCCc2ccccc21 (configuration not stated) | -0.492%

Row | Structure (SMILES) | cytotoxicity at 70.5 h
49 | CC(C)c1nn(C)c(N(C)C)c1CNC1CCOc2ccccc21 (configuration not stated) | 7.29%
50 | O=C(CCn1cnc2cc(F)c(F)cc21)N1CCN(C2CC2)CC1 | -5.93%
51 | Cn1c(CN2CCCC(N3CCNC3=O)C2)cc(=O)n(C)c1=O (configuration not stated) | 26.4%
52 | Cn1c(CN2CCCC(N3CCCCCC3)C2)cc(=O)n(C)c1=O (configuration not stated) | -4.65%
53 | COc1ccc(OC)c(CN2CCN(Cc3cscn3)CC2)c1 | -5.74%
54 | Cc1cnn(CC(C)Nc2cnc3ccccc3n2)c1 (configuration not stated) | 4.57%
55 | CCC(=O)NCC(=O)NC(C)c1ccc(OCCC(C)C)cc1 (configuration not stated) | -2.78%
56 | CC(C)OCCC(=O)NCC(O)c1c(F)cccc1F (configuration not stated) | -6.84%
57 | Cc1ccc(S(=O)(=O)N2CCOCC2C#N)c(F)c1 (configuration not stated) | 2.28%
58 | CN1CC(NC(=O)Nc2cnn(-c3ccccc3Cl)c2)CCC1=O (configuration not stated) | -3.58%
59 | O=C(COc1ccc2c(c1)OCC2O)NCc1ccco1 (configuration not stated) | -0.449%
60 | COc1ccccc1CNC(=O)COc1ccc2c(c1)OCC2O (configuration not stated) | -5.21%
61 | COC(=O)CN(C(=O)c1cccc(F)c1Cl)c1cccc(C)n1 | 1.83%
62 | COC(=O)CN(C(=O)c1cc(C)c(F)cc1F)c1cccc(C)n1 | -5.14%
63 | CCC(c1ccccc1)N1CCN(CCO)CC1 (configuration not stated) | -6.76%
64 | Cc1ccc(CN(C)C(=O)CCn2c(=O)n(C)c3ccccc32)o1 | -6.04%
65 | COC(=O)CN(C(=O)C(C)c1c(F)cccc1F)c1cccc(C)n1 (configuration not stated) | -4.95%
66 | CCCn1c(=O)n(CCC(=O)N(C)Cc2ccc(C)o2)c2ccccc21 | -4.98%
67 | CC(C)c1nn(C)c(N(C)C)c1CNC1CCCOc2ccccc21 (configuration not stated) | 31.4%
68 | CCN(CC(C)C#N)C(=O)CNc1cc(Cl)ccc1C(N)=O (configuration not stated) | 3.41%
69 | O=C(NCC1CC1)c1ccc(NC(=O)c2ccco2)cc1 | -5.31%
70 | COc1ccccc1CCNS(=O)(=O)N1CCOCC1 | -11.8%
71 | O=C(c1cc2c(s1)CCC2)N1CCN(c2cnccn2)CC1 | -14.9%
72 | CC1CN(C(=O)Nc2cc(C(F)(F)F)c[nH]c2=O)CC(C)(C)O1 (configuration not stated) | -8.86%

Row | Structure (SMILES) | cytotoxicity at 70.5 h
73 | COC(=O)c1ccc(NC(C)c2ccc3c(c2)CC(=O)N3)nn1 (configuration not stated) | -10.3%
74 | CCc1ccc(S(=O)(=O)N2CCCn3ncnc32)s1 | -3.85%
75 | O=S(=O)(c1ccc(Cl)s1)N1CCCn2ncnc21 | -1.11%
76 | CCS(=O)(=O)CCSc1ccc(Br)cc1 | -6.15%
77 | CCc1nc(C2CCCN(c3nccc(N4CCCC4)n3)C2)no1 (configuration not stated) | -0.206%
78 | CN(C)C(=O)c1cccc(CCNS(=O)(=O)c2ccccc2)c1 | -1.77%
79 | CCOc1ccc(Cl)cc1CCNC(=O)N1CCCC(CO)C1 (configuration not stated) | -7.21%
80 | CCn1nc(C)cc1C(=O)OCCNC(=O)c1ccccc1 | -0.786%
81 | COc1c(CNCc2ccccc2-n2ccnc2)c(C)nn1C | 8.51%
82 | CCOc1cc(Cl)ccc1CNC(=O)N1CCCC(CO)C1 (configuration not stated) | -9.17%
83 | COc1c(CNCc2ccccc2Cn2cccn2)c(C)nn1C | -5.48%
84 | COCCn1cc(C(=O)N2CCCC2c2cccs2)c2ccccc21 (configuration not stated) | 7.25%
85 | Cc1cc(CC(=O)NCC(O)COc2ccc(F)c(F)c2)n[nH]1 (configuration not stated) | 17.8%
86 | Cc1nnc(C(C)Nc2ccc(OCCc3ccccc3)nc2)o1 (configuration not stated) | 0.291%
87 | CN(C)c1ccc(C(=O)N2CCCC2c2ccc(Cl)cc2)cc1 (configuration not stated) | -4.22%
88 | CC(C)c1noc(CCC(=O)N2CCN(C)CC2c2ccccc2)n1 (configuration not stated) | -9.08%
89 | CCC(C)(CNC(=O)Nc1nccs1)N1CCOCC1 (configuration not stated) | -8.6%
90 | Cc1noc(CCCC(=O)N2CCN(C)CC2c2ccccc2)n1 (configuration not stated) | 29.2%
91 | CC(C)c1noc(CCCC(=O)N2CCN(C)CC2c2ccccc2)n1 (configuration not stated) | -8.67%
92 | CC(NC(=O)N1CCc2ccccc21)c1nncn1C (configuration not stated) | -12.2%
93 | CC(=O)N(C)CC(=O)NC1(c2ccc(Cl)c(Cl)c2)CC1 | -10%
94 | N#Cc1ccc(CN2CCCN(C(=O)CCn3cncn3)CC2)cc1 | -10.9%
95 | COc1cc2c(cc1OC)CN(C(=O)NC(C)c1nncn1C)CC2 (configuration not stated) | 26.1%
96 | O=C(c1ccc(-n2ccnc2)nc1)N1CCN2CCCCC2C1 (configuration not stated) | -10.4%

Row | Structure (SMILES) | cytotoxicity at 70.5 h
97 | Cc1cc(C)cc(N(C)S(=O)(=O)c2cc3c(c(C(=O)O)c2)OCCO3)c1 | -12.8%
98 | CN(C)c1ccc(C(=O)N2CCCC2c2cnn(C)c2)nn1 (configuration not stated) | -11.7%
99 | CN(c1ccccc1)S(=O)(=O)c1cc2c(c(C(=O)O)c1)OCCO2 | -9.42%
100 | Cc1ccccc1CS(=O)(=O)c1nnc(N2CCOCC2)s1 | 8.66%
101 | CNC(=O)c1cccnc1N1CCN(C/C=C/c2ccccc2)CC1 | 6.62%
102 | COc1cc(C(C)NCc2c[nH]nc2C)ccc1OCCO (configuration not stated) | 7.95%
103 | CC(=O)NCCCSC1CCN(c2ccccc2Cl)C1=O (configuration not stated) | -10.2%
104 | Cn1cc(C(=O)CC2CCCN2C(=O)c2ccc(Cl)o2)cn1 (configuration not stated) | 2.73%
105 | Cn1cc(C(=O)CC2CCCN2C(=O)c2ccc(Cl)cn2)cn1 (configuration not stated) | -8.95%
106 | CCc1nc(C2CCCN(C(=O)C3=NN(C(C)C)C(=O)CC3)C2)no1 (configuration not stated) | -13.3%
107 | CCN1N=C(C(=O)N2CCCC(c3noc(C)n3)C2)CCC1=O (configuration not stated) | 22.2%
108 | COc1cc(C(=O)N2CCCC2CC(=O)c2cnn(C)c2)ccc1F (configuration not stated) | 8.93%
109 | CCCc1n[nH]c(C2CN(Cc3ncc[nH]3)CCO2)n1 (configuration not stated) | 4.94%
110 | N#Cc1cn(CCCN2CCc3ccccc32)c(=O)[nH]c1=O | 21.5%
111 | O=C(Cn1cc(Cl)cn1)Nc1ccc2c(c1)OCO2 | -2%
112 | O=C(NC1CC1)C1CCCN(c2cccc(C(F)(F)F)n2)C1 (configuration not stated) | -5.01%
113 | CC(C(=O)N1CCN(C(=O)c2ccc(F)cc2F)CC1)n1ccnc1 (configuration not stated) | -4.77%
114 | COc1cccc(-c2n[nH]cc2CNC2CCN(C(C)C)CC2)c1 | -0.27%
115 | COc1cccc(-c2n[nH]cc2CNC2CCC(O)CC2)c1 (configuration not stated) | -15.9%
116 | CC(C)c1nn(C)c(N(C)C)c1CNC1CCOc2c(F)cccc21 (configuration not stated) | -2%
117 | COc1ccc(C(C)NCc2c[nH]nc2C)cc1OC (configuration not stated) | -8.7%
